Structures are written as SMILES. Calls of active or inactive are those of the source. No cut-off for these calls is given here.

In the first data set the test system is HeLa. As to the kind of experiment: Cytotoxicity against human HeLa cells measured after 24 hrs by MTT assay. In kind it is cell-based.
As for `O=C1[C@@H]2CCCN2[C@@H](CCC[C@H]2N(c3ccc([N+](=O)[O-])cc3)C(=O)[C@@H]3CCCN32)N1c1ccc([N+](=O)[O-])cc1`, the CC10 is greater than 10 µM.

Regarding `O=C1[C@@H]2CCCN2[C@@H](Cc2ccc([N+](=O)[O-])cc2)N1c1ccc([N+](=O)[O-])cc1`, the CC10 is greater than 10 µM.

As to `O=C1[C@@H]2CCCN2[C@@H](c2ccccc2[N+](=O)[O-])N1c1ccc([N+](=O)[O-])cc1`, the CC10 was greater than 10 µM.

Turning to `COc1ccc([C@H]2N(c3ccc([N+](=O)[O-])cc3)C(=O)[C@@H]3CCCN32)cc1`, the CC10 was greater than 10 µM.

For the compound `O=C1[C@@H]2CCCN2[C@@H](c2ccc(Cl)cc2)N1c1ccc([N+](=O)[O-])cc1`, the CC10 was greater than 10 µM.

The next data set concerns the target T1, Vitamin D3 receptor (Homo sapiens) (UniProt P11473).
T1 sequence (whole entry): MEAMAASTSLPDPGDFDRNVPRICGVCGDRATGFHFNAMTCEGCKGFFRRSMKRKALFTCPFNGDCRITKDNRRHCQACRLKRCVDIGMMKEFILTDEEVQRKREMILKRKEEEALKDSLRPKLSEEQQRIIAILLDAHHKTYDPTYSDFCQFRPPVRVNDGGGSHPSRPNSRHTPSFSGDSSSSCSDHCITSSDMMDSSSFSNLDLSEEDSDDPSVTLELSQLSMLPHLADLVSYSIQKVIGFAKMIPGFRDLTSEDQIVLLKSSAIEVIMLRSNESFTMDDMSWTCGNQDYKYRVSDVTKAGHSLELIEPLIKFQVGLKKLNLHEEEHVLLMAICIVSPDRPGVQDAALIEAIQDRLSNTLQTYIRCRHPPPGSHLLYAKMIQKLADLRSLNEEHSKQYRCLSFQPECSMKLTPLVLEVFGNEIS
As to the kind of experiment: Activation of VDR (unknown origin) expressed in human HeLa cells measured after 24 hrs by luciferase reporter assay. In kind it is cell-based.
As for `O=C1[C@@H]2CCCN2[C@@H](CCC[C@H]2N(c3ccc([N+](=O)[O-])cc3)C(=O)[C@@H]3CCCN32)N1c1ccc([N+](=O)[O-])cc1`, the result was inactive.

For the compound `O=C1[C@@H]2CCCN2[C@@H](Cc2ccc([N+](=O)[O-])cc2)N1c1ccc([N+](=O)[O-])cc1`, the result was inactive.

`O=C1[C@@H]2CCCN2[C@@H](c2ccccc2[N+](=O)[O-])N1c1ccc([N+](=O)[O-])cc1`: the outcome was inactive.

With `COc1ccc([C@H]2N(c3ccc([N+](=O)[O-])cc3)C(=O)[C@@H]3CCCN32)cc1`, the outcome was inactive.

For `O=C1[C@@H]2CCCN2[C@@H](c2ccc(Cl)cc2)N1c1ccc([N+](=O)[O-])cc1`, the outcome was inactive.

The target of the next data set is Genome polyprotein (dengue virus type 2) (UniProt P29990). As to the kind of experiment: Inhibition of Dengue virus 2 NS2B-NS3 protease.
`O=C1[C@@H]2CCCN2[C@@H](CCC[C@H]2N(c3ccc([N+](=O)[O-])cc3)C(=O)[C@@H]3CCCN32)N1c1ccc([N+](=O)[O-])cc1`: the “Inhibition (active/not active)” value was “inactive”.

As for `O=C1[C@@H]2CCCN2[C@@H](Cc2ccc([N+](=O)[O-])cc2)N1c1ccc([N+](=O)[O-])cc1`, the “Inhibition (active/not active)” value was “Active”.

With `O=C1[C@@H]2CCCN2[C@@H](c2ccccc2[N+](=O)[O-])N1c1ccc([N+](=O)[O-])cc1`, the “Inhibition (active/not active)” value is “inactive”.

On to `COc1ccc([C@H]2N(c3ccc([N+](=O)[O-])cc3)C(=O)[C@@H]3CCCN32)cc1`, for which the “Inhibition (active/not active)” value was “Active”.

Consider `O=C1[C@@H]2CCCN2[C@@H](c2ccc(Cl)cc2)N1c1ccc([N+](=O)[O-])cc1`, for which the “Inhibition (active/not active)” value is “Active”.

The next data set deals with T1, Vitamin D3 receptor (Homo sapiens). As to the kind of experiment: Modulation of VDR (unknown origin) expressed in human HeLa cells assessed as increase in calcitriol-induced response measured after 24 hrs by luciferase reporter assay. Format: cell-based.
Regarding `O=C1[C@@H]2CCCN2[C@@H](CCC[C@H]2N(c3ccc([N+](=O)[O-])cc3)C(=O)[C@@H]3CCCN32)N1c1ccc([N+](=O)[O-])cc1`, the result was inactive.

`O=C1[C@@H]2CCCN2[C@@H](Cc2ccc([N+](=O)[O-])cc2)N1c1ccc([N+](=O)[O-])cc1`: the result was inactive.

Turning to `O=C1[C@@H]2CCCN2[C@@H](c2ccccc2[N+](=O)[O-])N1c1ccc([N+](=O)[O-])cc1`, the outcome was inactive.

`COc1ccc([C@H]2N(c3ccc([N+](=O)[O-])cc3)C(=O)[C@@H]3CCCN32)cc1`: the outcome was inactive.

In the case of `O=C1[C@@H]2CCCN2[C@@H](c2ccc(Cl)cc2)N1c1ccc([N+](=O)[O-])cc1`, the result was inactive.

The values above are taken from ChEMBL document CHEMBL4393731, “Discovery of fused bicyclic derivatives of 1H-pyrrolo[1,2-c]imidazol-1-one as VDR signaling regulators” (Bioorg Med Chem, 2019).
